We go through three substances from patent US9598720B2, “Monomeric and polymeric linkers useful for conjugating biological molecules and other substances” (DAKO Denmark A/S, priority 2005, dated 2017).

This data set deals with repetitive DNA sequence in the centromere of the human chromosome 17. The data set can be described thus: FISH on metaphases with fluorescein labeled PNAs, green signal compared with a red fluorescent PNA. Particulars: visual and Leica QFISH Measure Intensity. From the text:
The PNA sequence was directed at a repetitive DNA sequence in the centromere of the human chromosome 17, allowing the PNAs to be compared by FISH on metaphases. To erase specimen variation, each of the PNAs was mixed with a red fluorescent PNA directed at the same centromere region on chromosome 17, and the intensity of the red and green signals compared visually and quantified by the “Measure Intensity” function in the Leica QFISH program.

“Also recorded” adds a separate entry of the source.

With “Ac-Lys(Flu)-L30-AACGGGATAACTGCACCT-L30-Lys(Flu)-L90-Lys(Flu)-L90-Lys(Flu)-NH2 (all peptide nucleic acid (PNA); PNA with Lys(Flu) fluorescein and L30/L90 linkers at the termini, C-terminal amide, further chemistry not fully specified) [Linker derivative 15]”, the “intensity of the green signal” value is “more intense signals”.

As to “H-Lys(Flu)-L30-AACGGGATAACTGCACCT-L30-Lys(Flu)-L90-Lys(Flu)-L90-Lys(Flu)-NH2 (all peptide nucleic acid (PNA); PNA with Lys(Flu) fluorescein and L30/L90 linkers at the termini, C-terminal amide, further chemistry not fully specified) [Linker derivative 16]”, the “intensity of the green signal” value is recorded as “more intense signals; also recorded: most intense”.

“((FlU-L60)2-Lys-L60)2-LyS-L30-AACGGGATAACTGCACCT-NH2 (all peptide nucleic acid (PNA); PNA with Lys(Flu) fluorescein and L30/L90 linkers at the termini, C-terminal amide, further chemistry not fully specified) [Linker derivative 19]”: the “intensity of the green signal” value is given as “more intense signals”.
